Reference: patent publication US10857128B2, “Methods and compositions for treating inflammatory diseases” (Helmholtz Zentrum München Deutsches Forschungszentrum für …, priority 2017, dated 2020)
Read-outs that look alike come from different tables or passages of the source.

Columns and labels:
Format in all cases: cell-based
[1] = system: costimulatory molecules of LPS-stimulated human dendritic cells; test: Costimulatory molecules on LPS-stimulated human monocyte-derived dendritic cells (flow cytometry); settings: Dendritic cell, 24 h, LPS 0.1 μg/ml, D-amino acid 10 μM, mean ± SD of three experiments, relative to LPS-induced expression
Procedure: Generation of human monocyte-derived dendritic cells. Peripheral venous blood was obtained from healthy volunteers aged between 20 and 50 years after informed consent. Individuals with allergic disease, acute infection or taking any medication 20 days prior to blood sampling or any history of smoking (personal interview) were excluded prior to blood sampling. All experiments were conducted according to the principles expressed in the Declaration of Helsinki.
(§1) Peripheral blood mononuclear cells (PBMC) were isolated from heparinized whole blood by density gradient centrifugation (2000 rpm, 22° C., 20 min) (Biocoll, Biochrom AG, Berlin, Germany). […] Purity and viability of DCs was assessed by flow cytometry (FIG. 9A-C).
Costimulatory molecules on human DCs. The following primary monoclonal antibodies were used: CD83 fluorescein isothiocyanate (FITC); CD1a phycoerythrin (PE); CD86-FITC; CD80-PE; CD14 allophycocyanine (APC); CD40-APC; CD3-peridinin chlorophyll protein (PerCP); HLA-DR-PerCP; mouse immunoglobulins G1 (IgG1) mouse immunoglobulins G1 (IgG1) κ were used as isotype controls using the corresponding fluorochromes (all purchased from BD Biosciences, Heidelberg, Germany). To account for donor dependent variability of DC surface markers, all data were normalized to the expression induced by LPS which was set to 100% after subtraction of background values (FACS Canto, FACS DIVA software, Version 5.0.3, BD Biosciences, Heidelberg, Germany). Murine DC subsets and CD4^+ T cells. Single cell suspensions of splenocytes were obtained by filtering spleens through a 70 μm strainer. Samples were stained with CD3-PB (1:200, Biolegend, San Diego, USA), CD4-APC-H7 (BD, 1:400), CD11c-APC-Cy7 (1:100), Mhc-II-Percp-Cy5 (1:100), CD11b-FITC (1:100), CD80-AF647, CD40-APC (1:100). For intracellular cytokines, total spleen cells were stimulated with anti-CD3 (4 μg/mL, BD Bioscience, Heidelberg, Germany) and anti-CD28 (30 ng/mL, BD Bioscience, Heidelberg, Germany) for 16 h. 1×10^6 of total lung cells were stimulated for 16 h with MACSiBead particles coated with anti-CD3 and anti-CD28 using the T cell activation/expansion kit (Miltenyi Biotec, Bergisch Gladbach, Germany) in TexMACS medium (Miltenyi Biotec) according to the manufactures recommendations. Prior to staining, cells were treated with monensin (0.7 μL/mL, BD Golgi Stop, BD Bioscience, Heidelberg, Germany) for 6 h at 37° C. and intracellularly stained for II-4-PE (1:100, eBioscience, Vienna, Austria according to the manufacturer's protocols. Intracellular staining for Foxp3 was performed by using the Foxp3/Transcription Factor Staining buffer set (eBiosciences, Vienna, Austria) according to the manufacturer's recommendations.
Bioassays for screening for immune modulatory activity in probiotic supernatants. Two biological assays based on down-modulation of costimulatory molecules on human DCs, and of CCL17-secretion by a human Hodgkin lymphoma T cell line (KM-H2) were set up. Human immature DCs were matured with 0.1 μg/mL lipopolysaccharide (LPS) from E. coli (Sigma-Aldrich, St. Louis, USA) in the presence or absence of 200 μL bacteria free supernatants for 24 h followed by flow cytometric analysis of costimulatory molecules.

[2] = system: human LPS treated DCs; test: Cytokine secretion of human DCs (multiplex assay); settings: for IFN-g / IL-5 / IL-10 / IL-12: 200 μl supernatant or amino acid 10 μM, 14 h
Procedure: as §1
[…] For probiotic supernatants, blank CDM1 was used as medium control. […] IL-5, IFN-gamma, IL-12, and IL-10, were quantified by a multiplex assay (Milliplex Human Cytokine Immunoassay, Millipore GMbH Schalbach, Germany) as described by the manufacturer.

[3] = system: CCL17 secretion of human Hodgkin lymphoma KM-H2 cells; test: CCL17 secretion bioassay with KM-H2 cells (ELISA); settings: different concentrations, 24 h
Procedure: Human T cell line KM-H2. The human Hodgkin lymphoma T cell line (KM-H2) was purchased from the Leibniz Institute DSMZ-German Collection of Microorganisms and Cell Cultures, Braunschweig, Germany. 3-5×10^6 KM-H2 cells were grown in 4 mL RPMI 1640 per well in 6-well-plates (Nunc, Wiesbaden, Germany). All eukaryotic cells were cultured in 5% CO2 at 37° C. (HeraCell 240 and Heraeus BDD 6220, Thermo Fisher Scientific, Waltham, USA). Viability of cells after treatment with bacterial supernatants was assessed by trypan blue, 7-AAD and CellTiter-Blue® staining. (FIG. 9A-C)
Quantification of CCL17 and cytokines in eukaryotic cell culture supernatants. CCL17 was quantified in cell culture supernatants of KM-H2 cells using ELISA reagent Quantikine CCL17/TARC, (R&D Systems, Minneapolis, USA) according to the manufacturer's instructions (ELISA reader MRXII, Thermo Fisher Scientifc, Waltham, USA).
Bioassays for screening for immune modulatory activity in probiotic supernatants. Two biological assays based on down-modulation of costimulatory molecules on human DCs, and of CCL17-secretion by a human Hodgkin lymphoma T cell line (KM-H2) were set up. […]
Similarly, 200 μL supernatants were added to 3-5×10^6 KM-H2 cells for 24 h. Supernatants were collected from KM-H2 by centrifugation and stored at −80° C. until quantification of CCL17. […]

[4] = read-out: Percentage of CD40 expressing mature DCs
[5] = read-out: Percentage of CD80 expressing mature DCs
[6] = read-out: Percentage of CD83 expressing mature DCs
[7] = read-out: Percentage of CD86 expressing mature DCs
[8] = read-out: Percentage of HLA-DR expressing mature DCs

| SMILES | activity at 10 µM [1, 4] [%] | activity at 10 µM [1, 5] [%] | activity at 10 µM [1, 6] [%] | activity at 10 µM [1, 7] [%] | activity at 10 µM [1, 8] [%] | Ratio IL-5/IFN-g ([2]; with LPS 0.1 μg/ml) | Ratio IL-10/IL-12 ([2]; with LPS 0.1 μg/ml) | IFN-g ([2]; with LPS 0.1 μg/ml) [pg/mL] | IL-5 ([2]; with LPS 0.1 μg/ml) [pg/mL] | IL-10 ([2]; with LPS 0.1 μg/ml) [pg/mL] | IL-12 ([2]; with LPS 0.1 μg/ml) [pg/mL] | Ratio IL-5/IFN-g ([2]; without LPS) | Ratio IL-10/IL-12 ([2]; without LPS) | IFN-g ([2]; without LPS) [pg/mL] | IL-5 ([2]; without LPS) [pg/mL] | IL-10 ([2]; without LPS) [pg/mL] | IL-12 ([2]; without LPS) [pg/mL] | immune activity of synthetic tryptophan isomers in the CCL17 bioassay [3] |
| --- | --- | --- | --- | --- | --- | --- | --- | --- | --- | --- | --- | --- | --- | --- | --- | --- | --- | --- |
| O=C(O)[C@H]1CCCN1 [D-proline] | 99.2 ± 1.3 | 100.3 ± 0.1 | 100.9 ± 0.4 | 101 ± 1.9 | 98.4 ± 2.6 | 0.030 | 0.002 | 2295.40 | 69.10 | 4.00 | 1911.90 | 0.171 | 0.065 | 92.60 | 15.80 | 5.90 | 90.60 |  |
| N[C@H](Cc1ccc(O)cc1)C(=O)O [D-tyrosin] | 100 ± 1.3 | 101.6 ± 0.4 | 101.6 ± 0.6 | 102.2 ± 0.9 | 98.4 ± 2.4 |  |  |  |  |  |  |  |  |  |  |  |  |  |
| N[C@H](Cc1c[nH]cn1)C(=O)O [D-histidine] | 101 ± 3.2 | 102 ± 0.9 | 103.1 ± 0.3 | 102.5 ± 0.4 | 99.9 ± 0.9 |  |  |  |  |  |  |  |  |  |  |  |  |  |
| CC[C@@H](C)[C@@H](N)C(=O)O [D-isoleucine] | 100 ± 2.4 | 98.2 ± 1.5 | 100 ± 1.1 | 99.8 ± 1.2 | 100.1 ± 0.3 |  |  |  |  |  |  |  |  |  |  |  |  |  |
| C[C@H](O)[C@@H](N)C(=O)O [D-threonine] | 101 ± 1.5 | 100.8 ± 0.4 | 102.6 ± 0.5 | 102.1 ± 0.7 | 97.1 ± 3.9 |  |  |  |  |  |  |  |  |  |  |  |  |  |
| N[C@H](CO)C(=O)O [D-serine] | 101 ± 1.1 | 100 ± 2.8 | 100.8 ± 0.3 | 101 ± 2.8 | 98.6 ± 0.6 |  |  |  |  |  |  |  |  |  |  |  |  |  |
| N[C@H](Cc1ccccc1)C(=O)O [D-phenylalanine] | 100 ± 2.7 | 92.4 ± 3.5 | 99.6 ± 2 | 99.2 ± 3.3 | 98 ± 3.2 |  |  |  |  |  |  |  |  |  |  |  |  |  |
| C[C@@H](N)C(=O)O [D-alanine] | 102 ± 3.4 | 98.3 ± 2.6 | 97.7 ± 2.3 | 99.2 ± 2.1 | 98.1 ± 1.1 |  |  |  |  |  |  |  |  |  |  |  |  |  |
| O=C(O)[C@@H]1CCCN1 [L-Pro, L-Prolin] |  |  |  |  |  | 0.027 | 0.003 | 2133.90 | 57.70 | 6.00 | 1938.00 | 0.166 |  | 88.90 | 14.80 |  | 99.80 |  |
| N[C@@H](Cc1c[nH]c2ccccc12)C(=O)O [L-Trp, L-Tryptophan] |  |  |  |  |  | 0.030 | 0.002 | 2031.50 | 61.40 | 4.90 | 1993.00 | 0.267 | 0.065 | 45.00 | 12.00 | 5.70 | 88.30 | inactive |
| CC(C)C[C@@H](N)C(=O)O [D-leucine] | 100 ± 1.7 | 100 ± 1.6 | 97.1 ± 2.4 | 102 ± 1.3 | 98 ± 10 |  |  |  |  |  |  |  |  |  |  |  |  |  |
| CC(C)[C@@H](N)C(=O)O [D-valine] | 101 ± 2.4 | 99.6 ± 2 | 102 ± 1.2 | 101.8 ± 0.9 | 100 ± 1 |  |  |  |  |  |  |  |  |  |  |  |  |  |
| CSCC[C@@H](N)C(=O)O [D-methionine] | 102.7 ± 0.6 | 100.4 ± 0.2 | 102 ± 2.2 | 102 ± 2.5 | 98.9 ± 2 |  |  |  |  |  |  |  |  |  |  |  |  |  |
